Tests used:
[1] = Irradiation of caged nucleosides, conversion estimated by HPLC; assay type: physicochemical; details: 500 μM in water/acetone/acetonitrile; 405 nm 20-60 s or 365 nm 5-20 s; LED 3 W
Description: Conversions from caged compounds to uncaged compounds were estimated by integrating the peaks of a UV-spectrum that resulted from the HPLC analysis (Agilent infinity 1260).
When irradiating isolated N2-modified compounds, a final volume of 10 μL in double distilled water was irradiated using a LED (λmax=365 nm/405 nm/420 nm) and then analyzed by RP-HPLC.
A 500 μM solution of the compound 15, nitropiperonylmethyl fused via a carbamate moiety to guanosine (denoted “NPOM guanosine” or “caged guanosine”), in water/acetone/acetonitrile was irradiated in a 10 μL volume with either 405 nm for 20 s, 40 s or 60 s or with 365 nm for 5 s, 10 s or 20 s, respectively, using a LED power (input 3W and output 147 mW/cm^2). HPLC analysis was performed as described above.
Samples of the adenosine fused via a carbamate moiety to 7-(diethylamino)-4-(hydroxymethyl)-coumarin (DEACM) were irradiated with 450 nm. […] The peak at 21.1 min corresponds to the obtained compound and the peaks at 11.1 and 21.9 min correspond to the photo-cleavage products adenosine and DEACM-OH, respectively.

[2] = Stability of the carbamate linkage in water and HeLa cell lysate (HPLC); assay type: in vitro ADME; details: water or HeLa cell lysate, 24 h incubation at 37° C.
Description: To investigate the stability of the carbamate linker in cellular environment the compound 15, nitropiperonylmethyl fused via a carbamate moiety to guanosine, was studied in water and cell lysate. The cell lysate was produced by ultrasonication of HeLa cells (5*10^6 cells) in 400 μL 1×PBS buffer. The compound 15, NPOM-guanosine, suspended in water or cell lysate after 24 h incubation at 37° C. was analysed by HPLC-analysis as described above.
As can be taken from the FIG. 8, the compound 15 was stable under these conditions.

[3] = Irradiation of photocleavable 5′-cap analogs, LC-MS (triple quad); assay type: physicochemical; details: 30 seconds, 365 nm (3 W)
Description: For determination of mass spectra, HPLC—triple-quadrupole mass spectrometry system was used. The system consists of Agilent 1260 Infinity II with dual λ absorbance detector (G7114A) HPLC part and Agilent Ultivo mass spectrometer with JetStream ion source (type of ESI). Column which was used: Agilent Poroshell 120 EC-C18 (3.0×150/2.7 μm). The polar compounds were tested by LC method (eluent 20 mM NH40Ac buffer (pH=6)/CH3CN, gradient 0-30%, column temperature=20° C.).
Samples of the photocleavable 5′-cap analog of formula (22) were irradiated for 30 seconds with 365 nm (3 W).

HEK293T cells = assay: In cell translation assay in HEK293T cells of capped GLuc-mRNA (luminescence); assay type: cell-based; details: GLuc-mRNA with regular or modified nucleotides, 30 seconds (365 nm)
Excerpt: In cell translation assay in HeLa and HEK293T cells with m^7GpppG capped GLuc-mRNA caged with the photocleavable 5′-cap analog of formula (22) (denoted “DMNB m^7GpppG”) with either A) regular nucleotides or B) modified nucleotides m^5C and N^1methyl-pseudouridine. Samples were irradiated for 30 seconds (365 nm). The ApppG capped mRNA, which is not recognized by the translation initiation factor served as negative control, which is substracted from the other samples as it represents background activity. The values were normalized to the non-irradiated sample with m^7GpppG capped mRNA (100%). The experiment was performed in triplicates.

HeLa cells = assay: Translation and irradiation in HeLa cells of capped GLuc-mRNA (luminescence); assay type: cell-based; details: HeLa; GLuc-mRNA with regular or modified nucleotides; 30 seconds (365 nm)
Description: HeLa cells were transferred to a 96 well plate 20 h prior transfection. 30.000 cells/well were cultivated in growth Media (MEM, 10% FCS, 1% glutamine, 1% Penicillin, 1% Streptomycine, […] non-essential aminoacids). For transfection the growth media was exchanged for MEM-media with 0.6 μL Metafectene® Pro (0.3 μL) and 100 ng mRNA was added per well. 6 h after transfection of the cells the media was exchange by MEM-media, followed by irradiation and another MEM-media exchange. After 24 h post transfection the supernatant in the wells was used for further luminescence measurements. Values of the ApppG capped mRNA represent cap independent translation and were therefore subtracted from the other values.
In cell translation and irradiation in cell culture of mammalian HeLa cells was performed as described above. GLuc mRNA capped with the photocleavable 5′-cap analog of formula (12) (“DMNB”) was used and the commercial non-modified cap analog denoted “m^7GpppG” (Jena Bioscience) was used as a control. HeLa cells were either transfected with the DMNB-m^7GpCH2ppG capped mRNA (irradiated and non-irradiated before transfection) or with the natural capped mRNA (irradiated and non-irradiated before transfection). Irradiation of the mRNA containing the natural cap was performed (5 V, 600 mA) with 365 nm for 30 seconds to evaluate the resulting influence on translational efficiency. DMNB-m^7GpCH2ppG capped mRNA was irradiated in the same way or with 405 nm for 60 seconds. The ApppG capped mRNA, which is not recognized by the translation initiation factor served as negative control, which is substracted from the other samples as it represents background activity. The values were normalized to the non-irradiated m^7GpppG capped sample (100%). The experiment was performed in triplicates.
The luminescence measurement of cell culture media after translation in cells transfected with modified and non-modified GLuc mRNA was repeated using irradiation with 365 nm/405 nm for different periods of time. HeLa cells were either transfected with the GLuc mRNA capped with the photocleavable 5′-cap analog of formula (12) denoted “DMNB-m^7GpCH2ppG capped mRNA” or with the natural m^7GpppG capped mRNA. Cells transfected with the natural capped mRNA were irradiated (5 V, 600 mA) with 365 nm/405 nm for 30 s or 60 s to evaluate the resulting influence on translational efficiency. Cells transfected with DMNB-m^7GpCH2ppG capped mRNA were irradiated in the same way. The ApppG capped mRNA, which is not recognized by the translation initiation factor served as negative control, which is substracted from the other samples as it represents background activity. The values were normalized to the non-irradiated cells with m^7GpppG capped mRNA (100%). The experiment was performed in triplicates.
Luminescence measurement of cell culture media after translation of transfected modified and non-modified GLuc mRNA in cells. HeLa cells were either transfected with the NPOM-m^7GpCH2ppG capped mRNA or with the natural m^7GpppG capped mRNA. Cells transfected with the natural capped mRNA were irradiated (5 V, 600 mA) with 365 nm/405 nm for different periods of time to evaluate the resulting influence on translational efficiency. Cells transfected with NPOM-m^7GpCH2ppG capped mRNA were irradiated in the same way. The ApppG capped mRNA, which is not recognized by the translation initiation factor served as negative control, which is substracted from the other samples as it represents background activity. […]

Reticulocyte Lysate = assay: In vitro translation of capped FLuc-mRNA and luminescence measurement; assay type: biochemical; details: 30 seconds at 365 nm
Description: In vitro translation was performed using a eukaryotic cell free protein expression kit from Reticulocyte Lysate (Invitrogen). Experiments were performed in 12.5 μL total volume containing 20 ng of the corresponding FLuc-mRNAs, 50 μM L-methionine and 150 mM potassium acetate. Samples were mixed with 8.5 μL of the reticulocyte lysate and incubated for 90 min at 30° C. Afterwards, 2 μL of the respective translation mix were used in subsequent luminescence measurement. The translation efficiency of the reporter mRNAs was assessed in a luciferase assay using Beetle-juice Luciferase Assay Firefly (pjk). Luciferase activity was determined by adding 50 μL freshly prepared substrate solution to the translation mixture. Luminescence was monitored using a Tecan Infinite® m1000pro microplate reader with an acquisition time of 3 s (duration of signal acquisition).
The photocleavable 5′-cap analog of formula (7) was used for in vitro transcription to make FLuc mRNA as described above. This was used for in vitro translation and Luminescence measurement as described above. The commercial non-modified cap analog denoted “m^7GpppG” (Jena Bioscience) was used as positive control. Samples were irradiated for 30 seconds. The ApppG capped mRNA, which is not recognized by the translation initiation factor served as negative control, which is substracted from the other samples as it represents background activity. The experiment was performed in quadruplicates. The FLuc-mRNA capped with the photocleavable 5′-cap analog of formula (7) is denoted “ONB”.
The in vitro translation assay and luminescence measurement was performed as described above using the photocleavable 5′-cap analog of formula (12). The capped mRNA was denoted “DMNB-m^7GpCH2ppG capped FLuc-mRNA”. Samples were irradiated for 30 seconds (365 nm) or 60 seconds (405 nm). The commercial non-modified cap analog denoted “m^7GpppG” (Jena Bioscience) was used as positive control and all other samples were normalized to it. The ApppG capped mRNA, which is not recognized by the translation initiation factor served as negative control, which is substracted from the other samples as it represents background activity. The experiment was performed in triplicates, except *DMNB-m7GpCH2ppG (365 nm) which was a single determination.
The in vitro translation assay in reticulocyte lysate and luminescence measurement was performed as described above using m^7GpppG capped FLuc-mRNA caged with the photocleavable 5′-cap analog of formulas (22) and (25) (denoted “DMNB m^7GpppG” and “NPOM m^7GpppG”). Samples were irradiated for 30 seconds at 365 nm. The ApppG capped mRNA, which is not recognized by the translation initiation factor served as negative control, which was substracted from the other samples as it represents background activity. The values were normalized to the non-irradiated sample with m^7GpppG capped mRNA (100%). The experiment was performed in triplicates.
The in vitro translation assay in reticulocyte lysate and luminescence measurement was performed as described above using m^7GpppG capped FLuc-mRNA with modified nucleotides m^5C and N^1methyl-pseudouridine caged with the photocleavable 5′-cap analog of formulas (22) and (25) (denoted “DMNB m^7GpppG mod” and “NPOM m^7GpppG mod”). Samples were irradiated for 30 seconds at 365 nm. The ApppG capped mRNA, which is not recognized by the translation initiation factor served as negative control, which was substracted from the other samples as it represents background activity. The values were normalized to the non-irradiated sample with m^7GpppG capped mRNA (100%). The experiment was performed in triplicates.

stability (HPLC) [2]	uncaging of the cap after irradiation (LC-MS) [3]	Structure (SMILES)	conversion of caged guanosine to guanosine upon irradiation [1]	translation in cells (luminescence) after irradiation (HEK293T cells)	translation in cells (luminescence) after irradiation (HeLa cells)	in vitro translation (luminescence) after irradiation (Reticulocyte Lysate; capped FLuc-mRNA with modified nucleotides m^5C and N^1methyl-pseudouridine)	in vitro translation (luminescence) after irradiation (Reticulocyte Lysate; capped FLuc-mRNA, regular nucleotides)
stable	–	CC(OC(=O)Nc1nc2c(ncn2[C@@H]2O[C@H](CO)[C@@H](O)[C@H]2O)c(=O)[nH]1)c1cc2c(cc1[N+](=O)[O-])OCO2 (stereo partly shown) [compound 15, N^2-(1-(6-nitrobenzo[d][1,3]dioxol-5-yl)ethyl)oxycarbonylguanosine]	cleaved by irradiation and that guanosine is regained without side products	–	–	–	–
–	partially uncaged	COc1cc(COC(=O)Nc2nc3c(c(=O)[nH]2)[n+](C)cn3[C@@H]2O[C@H](COP(=O)(O)OP(=O)(O)OP(=O)(O)OC[C@H]3O[C@@H](n4cnc5c(=O)[nH]c(N)nc54)C(O)C3O)C(O)C2O)c([N+](=O)[O-])cc1OC (stereo partly shown) [compound 22, P1-(N^2-(4,5-Dimethoxy-2-nitrobenzyl)oxycarbonyl-7-methylguanosin-5′-yl)-P3-guanosin-5′-yl triphosphate]	–	marked increase of translation	marked increase of translation	marked increase of translation	marked increase of translation

— patent US20250276994A1, “CAP ANALOG FOR THE 5'-END OF EUKARYOTIC MESSENGER RNAS” (WESTFÄLISCHE WILHELMS-UNIVERSITÄT, priority 2021, published 2025)
